We go through 1 molecule from patent publication US20250130239A1, “PROTEIN DEGRADER” (University of Dundee, priority 2021, published 2025).

The target of assay [1] is T1, VHL, compound preincubated with Brd4^BD2 L387A (Homo sapiens, UniProt O60885+P40337, L387A).
T1 construct: N-terminally Hiss-tagged VHL (54-213); N-terminally His6-tagged Brd4-BD2^L387A (333-460) was expressed in E. coli; His6 (N, cleaved yes); made in house; host or cells: E. coli
As to the kind of experiment: Fluorescence polarization competitive binding assay, ternary complex binding. The note with it: displacement of HIF-1a peptide probe, read-out: ternary binding affinity Kd. The method, then: Protein Expression and Purification. […] The complex was further purified by anion exchange followed by gel filtration chromatography.
Fluorescence Polarization Binding Assay. […] All components were dissolved from stock solutions using 100 mM Bis-Tris propane, 100 mM NaCl, 1 mM DTT, pH 7.0, to yield a final assay volume of 15 μL. DMSO was added as appropriate to ensure a final concentration of 2% v/v. […] Percentage displacement values were obtained by normalization of controls were plotted against Log[Compound]. IC50 values were determined for each titration using nonlinear regression analysis with Prism (v. 9.1.0, GraphPad). […] Cooperativity values (a) for each PROTAC were calculated using the ratio: α=binary Kd (−bromodomain)/ternary Kd (+bromodomain).
Background: In fluorescence polarisation assays a small probe gives low polarisation when free and higher when bound to something large.

The subject of assay [2] is BRD3, BRD4 or any other endogenous protein. As to the kind of experiment: TMT labeling mass spectrometry proteomics, off-targets. The class given is cell-based, human. As to conditions: 1 μM, 2 h; >6,621 proteins quantified. As to the method:
Sample processing, TMT labelling and fractionation. CRISPR modified BromoTag-Brd2 HEK293 cells were seeded 5×10^6 cells on a […] 24 h before treatment. Cells were treated with either DMSO, 1 μM AGB1 or 1 μM cis-AGB1. 2 h post-treatment, the cells were washed twice with PBS. Cells were lysed in 150 μL of 100 mM TEAB, 5% (w/v) SDS. The lysate was sonicated for 10 s and then centrifuged at 15,000 g for 5 min with the supernatant collected post-centrifugation. Samples were then quantified using a micro-BCA protein assay kit (Thermo Fisher Scientific); 300 μg of each sample were then reduced, alkylated and then digested using Strap mini protocol (Protifi) protocol as described by the manufacturer (protifi) with some modification. Samples were double digested with trypsin (1:40) first overnight then for another 6 hrs with the same ratio (1:40) in 50 mM TEAB buffer. Peptides were quantified using a quantitative fluorometric peptide assay (Thermo Fisher Scientific). The samples (90 μg each) were labelled with a TMT 10-plex Isobaric Label Reagent set (Thermo Fisher Scientific) as per the manufacturer's instructions. After labelling, samples were checked for labelling efficiency, then mixed, desalted, and dried in a speed-vac at 30° C. Samples were re-dissolved in 200 μl ammonium formate (10 mM, pH 9.5) and peptides were fractionated using High pH RP Chromatography. […]

As for `CC[C@@H](C(=O)OCCOCCOCCOCC(=O)N[C@H](C(=O)N1C[C@H](O)C[C@H]1C(=O)NCc1ccc(-c2scnc2C)cc1)C(C)(C)C)[C@@H]1N=C(c2ccc(Cl)cc2)c2c(sc(C)c2C)-n2c(C)nnc21` (single isomer, unassigned) [AGB1 (46)], the Kd (usually the free concentration of one partner at which half of the binding sites on the other are occupied at equilibrium, for simple one-to-one binding) in assay [1] stood at 0.011 µM. The “depletion of BRD3, BRD4 or any other endogenous protein (proteomics)” value in assay [2] is “no detectable off-target effects”.
